# Data taken from patent US10494355B2, “Oxadiazole amine derivative compounds as histone deacetylase 6 inhibitor, and the pharmaceutical composition comprising the same” (Chong Kun Dang Pharmaceutical Corp., priority 2015, dated 2019).
# Columns and labels:
# [1] = molecular target: T1, human recombinant HDAC1 (Homo sapiens, UniProt Q13547); test: HDAC1 enzyme activity inhibition assay (HDAC Fluorimetric Drug Discovery Kit); assay type: biochemical; details: human recombinant HDAC1, 10 μM substrate, 30° C. 60 minutes
# T1 construct: purchased Enzo Life Science BML-SE456
# T1 sequence (Q13547 whole entry): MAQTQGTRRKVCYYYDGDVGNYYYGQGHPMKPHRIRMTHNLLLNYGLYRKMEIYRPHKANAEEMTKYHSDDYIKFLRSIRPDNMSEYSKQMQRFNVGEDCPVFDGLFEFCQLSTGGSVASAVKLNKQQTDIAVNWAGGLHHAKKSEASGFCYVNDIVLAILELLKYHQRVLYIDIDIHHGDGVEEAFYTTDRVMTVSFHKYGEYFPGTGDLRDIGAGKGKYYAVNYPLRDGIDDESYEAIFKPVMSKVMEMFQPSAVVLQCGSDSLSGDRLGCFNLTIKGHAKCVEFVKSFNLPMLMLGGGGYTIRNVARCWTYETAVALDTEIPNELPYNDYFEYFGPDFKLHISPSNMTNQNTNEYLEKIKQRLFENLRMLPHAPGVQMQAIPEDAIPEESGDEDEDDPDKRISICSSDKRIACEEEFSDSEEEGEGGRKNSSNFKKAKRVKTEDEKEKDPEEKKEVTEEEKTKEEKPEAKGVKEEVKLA
# Protocol: (§1) In order to examine the HDAC6 selectivity of the compounds of formula I of the present invention by HDAC1 and HDAC6 enzymatic activity inhibition assays, an experiment was performed using a conventional substance as a control.
# (§2) HDAC enzyme activity was measured using a HDAC Fluorimetric Drug Discovery Kit (BML-AK511, 516, Enzo Life Science). For the HDAC1 enzyme activity test, human recombinant HDAC1 (BML-SE456) was used as an enzyme source, and Fluor de Lys®-“SIRT1 (BNL-KI177) was used as a substrate. A 5-fold dilution of the compound was seeded into a 96-well plate, and then 0.3 μg of the enzyme and 10 μM of the substrate were added to each well of the plate and allowed to react at 30° C. for 60 minutes. Then, Fluor de Lys®-Developer II (BML-KI176) was added thereto and allowed to react for 30 minutes, after which the fluorescence value (Ex 360, Em 460) was measured using a multi-plate reader (Flexstation 3, Molecular Device). The HDAC6 enzyme was tested using human recombinant HDAC6 (382180) (Calbiochem) according to the same protocol as the HDAC1 enzyme activity test method. Based on the resulting values, each IC50 value was calculated using GraphPad Prism4.0 program.
# [2] = molecular target: T2, human recombinant HDAC6 (Homo sapiens, UniProt Q9UBN7); test: HDAC6 enzyme activity inhibition assay (HDAC Fluorimetric Drug Discovery Kit); assay type: biochemical; details: 30° C. 60 minutes
# T2 construct: purchased Calbiochem 382180
# T2 sequence (Q9UBN7 1-1215): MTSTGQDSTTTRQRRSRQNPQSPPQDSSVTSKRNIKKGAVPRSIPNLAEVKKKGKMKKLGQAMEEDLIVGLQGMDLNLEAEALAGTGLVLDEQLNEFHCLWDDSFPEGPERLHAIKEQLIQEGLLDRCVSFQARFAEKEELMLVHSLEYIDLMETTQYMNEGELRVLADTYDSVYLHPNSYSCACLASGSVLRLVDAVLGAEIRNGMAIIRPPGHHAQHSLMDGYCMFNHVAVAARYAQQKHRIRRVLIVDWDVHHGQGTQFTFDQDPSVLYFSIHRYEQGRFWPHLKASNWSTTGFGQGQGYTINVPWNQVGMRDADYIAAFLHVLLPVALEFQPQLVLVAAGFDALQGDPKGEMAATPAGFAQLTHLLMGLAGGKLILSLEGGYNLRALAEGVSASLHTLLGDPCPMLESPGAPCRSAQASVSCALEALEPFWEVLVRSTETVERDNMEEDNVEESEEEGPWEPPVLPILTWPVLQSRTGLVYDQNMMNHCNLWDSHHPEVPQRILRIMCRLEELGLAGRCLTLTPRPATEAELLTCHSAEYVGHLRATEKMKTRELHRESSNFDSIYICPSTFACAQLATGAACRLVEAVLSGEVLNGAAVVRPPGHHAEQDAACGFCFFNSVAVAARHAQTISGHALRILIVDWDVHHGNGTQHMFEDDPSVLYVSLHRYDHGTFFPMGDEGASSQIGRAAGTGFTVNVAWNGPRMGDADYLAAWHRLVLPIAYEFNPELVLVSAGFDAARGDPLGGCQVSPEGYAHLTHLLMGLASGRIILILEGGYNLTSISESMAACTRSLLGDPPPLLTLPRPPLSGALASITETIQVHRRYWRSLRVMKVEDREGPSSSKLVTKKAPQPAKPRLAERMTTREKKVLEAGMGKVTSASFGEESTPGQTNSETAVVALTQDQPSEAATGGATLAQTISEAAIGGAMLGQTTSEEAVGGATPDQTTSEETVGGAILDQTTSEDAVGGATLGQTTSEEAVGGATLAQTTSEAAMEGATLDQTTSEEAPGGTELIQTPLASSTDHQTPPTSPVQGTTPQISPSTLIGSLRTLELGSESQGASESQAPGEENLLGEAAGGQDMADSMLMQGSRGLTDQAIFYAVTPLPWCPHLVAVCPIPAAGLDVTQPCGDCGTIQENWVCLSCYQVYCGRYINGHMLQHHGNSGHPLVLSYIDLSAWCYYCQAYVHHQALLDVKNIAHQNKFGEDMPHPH
# Protocol: as §1, §2
Structure (SMILES),IC50 [1],IC50 [2]
"FC(F)c1nnc(-c2cnc(NC3(c4cccc(C(F)(F)F)c4)CCC3)nc2)o1 [Compound 1642, 5-(5-(difluoromethyl)-1,3,4-oxadiazol-2-yl)-N-(1-(3-(trifluoromethyl)phenyl)cyclobutyl)pyrimidin-2-amine]",> 10 µM,0.057 µM
"Fc1cccc(F)c1C1(Nc2ncc(-c3nnc(C(F)F)o3)cn2)CCC1 [Compound 1828, 5-(5-(difluoromethyl)-1,3,4-oxadiazol-2-yl)-N-(1-(2,6-difluorophenyl)cyclobutyl)pyrimidin-2-amine]",> 10 µM,0.039 µM
"Cc1ccc(S(=O)(=O)CC2(Nc3ncc(-c4nnc(C(F)F)o4)cn3)CCC2)cc1 [Compound 2026, 5-(5-(difluoromethyl)-1,3,4-oxadiazol-2-yl)-N-(1-(tosylmethyl)cyclobutyl)pyrimidin-2-amine]",> 10 µM,> 10 µM
"FC(F)c1nnc(-c2cnc(NC3(c4ccccc4)CCC3)nc2)o1 [Compound 1559, 5-(5-(difluoromethyl)-1,3,4-oxadiazol-2-yl)-N-(1-phenylcyclobutyl)pyrimidin-2-amine]",> 10 µM,0.03 µM
"FC(F)(F)c1nnc(-c2cnc(NC3(c4ccc(Cl)cc4Cl)CCC3)nc2)o1 [Compound 1837, N-(1-(2,4-dichlorophenyl)cyclobutyl)-5-(5-(trifluoromethyl)-1,3,4-oxadiazol-2-yl)pyrimidin-2-amine]",> 10 µM,2.52 µM
"Fc1cccc(C2(Nc3ncc(-c4nnc(C(F)(F)F)o4)cn3)CCC2)c1 [Compound 1608, N-(1-(3-fluorophenyl)cyclobutyl)-5-(5-(trifluoromethyl)-1,3,4-oxadiazol-2-yl)pyrimidin-2-amine]",> 10 µM,0.154 µM
"COc1cccc(C2(Nc3ncc(-c4nnc(C(F)F)o4)cn3)CCC2)c1 [Compound 1605, 5-(5-(difluoromethyl)-1,3,4-oxadiazol-2-yl)-N-(1-(3-methoxyphenyl)cyclobutyl)pyrimidin-2-amine]",> 10 µM,0.044 µM
"FC(F)(F)c1ccc(C2(Nc3ncc(-c4nnc(C(F)(F)F)o4)cn3)CCC2)cc1 [Compound 2044, 5-(5-(trifluoromethyl)-1,3,4-oxadiazol-2-yl)-N-(1-(4-(trifluoromethyl)phenyl)cyclobutyl)pyrimidin-2-amine]",> 10 µM,1.74 µM
"Fc1ccc(Cl)c(C2(Nc3ncc(-c4nnc(C(F)F)o4)cn3)CCC2)c1 [Compound 1961, N-(1-(2-chloro-5-fluorophenyl)cyclobutyl)-5-(5-(difluoromethyl)-1,3,4-oxadiazol-2-yl)pyrimidin-2-amine]",> 10 µM,0.115 µM
"FC(F)c1nnc(-c2cnc(NC3(c4ccccc4)CCCC3)nc2)o1 [Compound 1579, 5-(5-(difluoromethyl)-1,3,4-oxadiazol-2-yl)-N-(1-phenylcyclopentyl)pyrimidin-2-amine]",> 10 µM,0.046 µM
"COc1ccc(C2(Nc3ncc(-c4nnc(C(F)(F)F)o4)cn3)CCC2)cc1 [Compound 1604, N-(1-(4-methoxyphenyl)cyclobutyl)-5-(5-(trifluoromethyl)-1,3,4-oxadiazol-2-yl)pyrimidin-2-amine]",> 10 µM,0.204 µM
"FC(F)(F)c1nnc(-c2cnc(NC3(c4ccccc4)CC3)nc2)o1 [Compound 1526, N-(1-phenylcyclopropyl)-5-(5-(trifluoromethyl)-1,3,4-oxadiazol-2-yl)pyrimidin-2-amine]",> 10 µM,0.179 µM
"O=C(OCc1ccccc1)N1CCC(Nc2ncc(-c3nnc(C(F)F)o3)cn2)(c2ccccc2)CC1 [Compound 1677, Benzyl 4-((5-(5-(difluoromethyl)-1,3,4-oxadiazol-2-yl)pyrimidin-2-yl)amino)-4-phenylpiperidine-1-carboxylate]",> 10 µM,0.267 µM
"Fc1ccc(C2(Nc3ncc(-c4nnc(C(F)F)o4)cn3)CCC2)cc1F [Compound 2045, 5-(5-(difluoromethyl)-1,3,4-oxadiazol-2-yl)-N-(1-(3,4-difluorophenyl)cyclobutyl)pyrimidin-2-amine]",> 10 µM,0.061 µM
"FC(F)c1nnc(-c2cnc(NC3(c4cccc(Cl)c4Cl)CCC3)nc2)o1 [Compound 1832, N-(1-(2,3-dichlorophenyl)cyclobutyl)-5-(5-(difluoromethyl)-1,3,4-oxadiazol-2-yl)pyrimidin-2-amine]",> 10 µM,0.1 µM
"Cc1ccc(C2(Nc3ncc(-c4nnc(C(F)F)o4)cn3)CCC2)cc1 [Compound 1675, 5-(5-(difluoromethyl)-1,3,4-oxadiazol-2-yl)-N-(1-(p-tolyl)cyclobutyl)pyrimidin-2-amine]",> 10 µM,0.039 µM
"FC(F)c1nnc(-c2cnc(NC3(c4ccc(N5CCCCC5)cc4)CCC3)nc2)o1 [Compound 2041, 5-(5-(difluoromethyl)-1,3,4-oxadiazol-2-yl)-N-(1-(4-(piperidin-1-yl)phenyl)cyclobutyl)pyrimidin-2-amine]",> 10 µM,0.189 µM
"FC(F)(F)c1cccc(C2(Nc3ncc(-c4nnc(C(F)(F)F)o4)cn3)CCC2)c1 [Compound 1670, 5-(5-(trifluoromethyl)-1,3,4-oxadiazol-2-yl)-N-(1-(3-(trifluoromethyl)phenyl)cyclobutyl)pyrimidin-2-amine]",> 10 µM,0.596 µM
"COc1cccc(C2(Nc3ncc(-c4nnc(C(F)(F)F)o4)cn3)CCC2)c1 [Compound 1606, N-(1-(3-methoxyphenyl)cyclobutyl)-5-(5-(trifluoromethyl)-1,3,4-oxadiazol-2-yl)pyrimidin-2-amine]",> 10 µM,0.168 µM
"Fc1cccc(C2(Nc3ncc(-c4nnc(C(F)(F)F)o4)cn3)CC2)c1 [Compound 1714, N-(1-(3-fluorophenyl)cyclopropyl)-5-(5-(trifluoromethyl)-1,3,4-oxadiazol-2-yl)pyrimidin-2-amine]",> 10 µM,0.138 µM
"FC(F)c1nnc(-c2cnc(NC3(c4ccccc4)CC3)nc2)o1 [Compound 1524, 5-(5-(difluoromethyl)-1,3,4-oxadiazol-2-yl)-N-(1-phenylcyclopropyl)pyrimidin-2-amine]",> 10 µM,0.048 µM
"Fc1ccc(C2(Nc3ncc(-c4nnc(C(F)(F)F)o4)cn3)CCC2)c(Cl)c1 [Compound 1960, N-(1-(2-chloro-4-fluorophenyl)cyclobutyl)-5-(5-(trifluoromethyl)-1,3,4-oxadiazol-2-yl)pyrimidin-2-amine]",> 10 µM,1.23 µM
"FC(F)c1nnc(-c2cnc(NC3(c4cccnc4)CCC3)nc2)o1 [Compound 1913, 5-(5-(difluoromethyl)-1,3,4-oxadiazol-2-yl)-N-(1-(pyridin-3-yl)cyclobutyl)pyrimidin-2-amine]",> 10 µM,0.04 µM
"Fc1ccc(C2(Nc3ncc(-c4nnc(C(F)(F)F)o4)cn3)CCC2)cc1 [Compound 1612, N-(1-(4-fluorophenyl)cyclobutyl)-5-(5-(trifluoromethyl)-1,3,4-oxadiazol-2-yl)pyrimidin-2-amine]",> 10 µM,0.455 µM
"Fc1ccc(F)c(C2(Nc3ncc(-c4nnc(C(F)F)o4)cn3)CCC2)c1 [Compound 1821, 5-(5-(difluoromethyl)-1,3,4-oxadiazol-2-yl)-N-(1-(2,5-difluorophenyl)cyclobutyl)pyrimidin-2-amine]",> 10 µM,0.032 µM
